Reference: patent US20240084258A1, “METHOD FOR PREPARING BROWN ADIPOCYTE” (KYOTO PREFECTURAL PUBLIC UNIVERSITY CORPORATION, priority 2015, published 2024)

Experiments:
Format in all cases: cell-based
[1] = tested on: human dermal fibroblasts (HDFs); experiment: UCP1 gene mRNA by real time RT-PCR (Example 2); conditions: induction medium + T3 + Rosiglitazone, D4476 2 μM, FSK 2 μM, PD0325901 1 μM, SB431542 2 μM, day 14, FIG. 2
Protocol: (§1) This was seeded in a 24-well plate at a concentration of 1×10^4 cells/well (day 0), and culturing was started at 5% CO2/95% humid air, 37° C. The next day, the culture supernatant was removed by suction and, as described in the Figure, a normal medium, an adipocyte induction medium, or an adipocyte induction medium added with each low-molecular compound and the like was added at 500 μL/well. […] The concentrations of the additives are as follows: • T3: 1 nM • Rosiglitazone: 1 μM • D4476: 2 μM • Pifithrin alpha [p53 inhibitor]: 5 μM • Forskolin (FSK): 2 μM • PD0325901: 1 μM • SB431542: 2 μM. The culture medium was substituted by a fresh one every 3-4 days and the cells were cultured up to day 14.

[2] = tested on: human dermal fibroblasts (HDFs); experiment: PGC-1alpha gene mRNA by real time RT-PCR (Example 5); conditions: induction medium + T3 + Rosiglitazone, FSK 2 μM, PD0325901 1 μM, day 14, FIG. 5
Protocol: as §1, with “The” for “This was seeded in a 24-well plate at a concentration of 1×10^4 cells/well (day 0), and culturing was started at 5% CO2/95% humid air, 37° C. The”, “each” for “each low-molecular”, “•” for “• D4476: 2 μM •”, “1” for “1 μM • SB431542: 2”

[3] = tested on: human dermal fibroblasts (HDFs); experiment: AdipoQ gene mRNA by real time RT-PCR (Example 6); conditions: induction medium + T3 + Rosiglitazone, D4476, SB431542, ALK5 Inhibitor II 2 μM, PD0325901 1 μM, day 14, FIG. 6
Protocol: as §1, with “with each low-molecular-weight compound and” for “with each low-molecular compound and”, “D4476: 2 μM. • Pifithrin” for “D4476: 2 μM • Pifithrin”, “μM • PD0325901: 1” for “μM • Forskolin (FSK): 2 μM • PD0325901: 1”, “• SB431542: 2 μM • ALK5 Inhibitor II: 2 μM.” for “• SB431542: 2 μM.”

[4] = tested on: human dermal fibroblasts (HDFs); experiment: UCP1 protein immunostaining, fluorescence intensity (Example 8); conditions: for UCP1 protein expression by immunostaining (conversion to brown adipocytes): induction medium + T3 + Rosiglitazone, D4476, SB431541, ALK5 inhibitor II, FSK 2 μM, PD0325901 1 μM, day 14, FIG. 8A-C
Protocol: (§2) The next day, the culture supernatant was removed by suction and, as described in the Figure, a normal medium, an adipocyte induction medium, or an adipocyte induction medium added with each compound and the like was added at 500 μL/well. […] The concentrations of the additives are as follows: • T3: 1 nM • Rosiglitazone: 1 μM • […]: 2 μM • SB431541: 2 μM • ALK5 inhibitor II: 2 μM • PD0325901: 1 μM • Forskolin (FSK): 2 μM. The culture medium was substituted by a fresh one every 3-4 days and the cells were cultured up to day 14. […] The cells were photographed at a magnification of 200 with a fluorescence microscope and the fluorescence intensity was measured.

[5] = tested on: human dermal fibroblasts (HDFs); experiment: Oil Red O staining of fibroblasts cultured with compounds (Example 1); conditions: adipocyte induction medium with T3 1 nM and Rosiglitazone 1 μM, D4476 2 μM, SB431542 2 μM, ALK5 Inhibitor II 2 M, Pifithrin alpha 5 μM, day 14, FIG. 1
Protocol: The next day, the culture supernatant was removed by suction and, as described in the Figure, a normal medium, an adipocyte induction medium, or an adipocyte induction medium added with the compound and the like was added at 500 μL/well.
The adipocyte induction medium is a 10% FBS-added DMEM+MDI medium (10% FBS-added DMEM supplemented with 0.5 mM isobutylmethylxanthine (IBMX), 0.5 μM dexamethason and 1 μg/mL Insulin).
The concentrations of the additives are as follows: • T3: 1 nM • Rosiglitazone: 1 μM • D4476: 2 μM • Pifithrin alpha [p53 inhibitor]: 5 μM • SB431542: 2 μM • ALK5 Inhibitor II: […].
The culture medium was substituted by a fresh one every 3-4 days and the cells were cultured up to day 14.
After washing 3 times with sterile distilled water, Oil Red O staining solution was added, and the mixture was incubated at room temperature for 15 min. Then, the cells were washed with sterile distilled water and photographed at a magnification of 100 with a phase contrast microscope.

[6] = tested on: human dermal fibroblasts (HDFs); experiment: UCP1 gene mRNA, comparison of four inhibitors at 4-16 μM (Example 15); conditions: for induction efficiency into brown adipocytes (order): compound at 4, 8, 12 or 16 μM up to Day 9, UCP1 mRNA on day 14, FIG. 15; for UCP1 gene expression (conversion to brown adipocytes): compound at 4, 8, 12 or 16 μM up to Day 9, then without compound Day 9-14, FIG. 15
Protocol: (§3) (Day −1). In the control (Ctrl) group, the culture supernatant of the next day (Day 0) was removed by suction and the cells were cultured in a normal medium up to day 14 while substituting the medium with a fresh one once every other day. In groups other than the control (Ctrl) group, the culture supernatant was removed by suction on day 0, an adipocyte induction medium or an adipocyte induction medium added with any of ALK5 inhibitor II, SB431542, LY2157299 and D4476 at a concentration of 4 μM, 8 μM, 12 μM or 16 μM respectively was added at 1 mL/well.
Thereafter, the cells were cultured in an adipocyte induction medium free of any compound of ALK5 inhibitor II, SB431542, LY215799 and D4476 during Day 9-Day 14.

[7] = tested on: human dermal fibroblasts (HDFs); experiment: UCP1 protein immunostaining, comparison of four inhibitors (Example 16); conditions: ALK5 inhibitor II 4 μM, LY2157299 8 μM; for UCP1 protein expression by immunostaining (induction into brown adipocytes): SB431542 4 μM, D4476 4 μM up to Day 9, day 14, FIG. 16A, 16B
Protocol: Thereafter, the cells were cultured in an adipocyte induction medium free of any compound of ALK5 inhibitor II, SB431542, LY215799 and D4476 during Day 9-Day 14. On day 14, the medium was removed by suction from each well, and the cells were washed with PBS(−).

[8] = tested on: human dermal fibroblasts (HDFs); experiment: UCP1, CIDEA and KCNK3 gene mRNA by real time RT-PCR (Example 17); conditions: ALK5 inhibitor II 4 μM or LY2157299 8 μM up to Day 9, day 14, FIG. 17
Protocol: as §3, with “and” for “an adipocyte induction medium or”, “II (4 μM) and” for “II, SB431542,”, “(8 μM)” for “and D4476 at a concentration of 4 μM, 8 μM, 12 μM or 16 μM respectively”
Thereafter, the cells were cultured in an adipocyte induction medium free of any compound of ALK5 inhibitor II and LY215799 during Day 9-Day 14. On day 14, the medium was removed by suction from the wells of all groups, and the cells were washed with PBS(−).

[9] = tested on: human dermal fibroblasts (HDFs); experiment: CIDEA gene mRNA by real time RT-PCR (Example 4); conditions: induction medium + T3 + Rosiglitazone, compounds 2 μM, day 14, FIG. 4
Protocol: The next day, the culture supernatant was removed by suction and, as described in the Figure, a normal medium, an adipocyte induction medium, or an adipocyte induction medium added with each compound and the like was added at 500 μL/well. […] The concentrations of the additives are as follows: • T3: 1 nM • Rosiglitazone: 1 μM • D4476: 2 μM • Pifithrin alpha [p53 inhibitor]: 5 μM • SB431542: 2 μM • ALK5 Inhibitor II: 2 μM. The culture medium was substituted by a fresh one every 3 4 days and the cells were cultured up to day 14.

[10] = tested on: human dermal fibroblasts (HDFs); experiment: BODIPY staining of lipid droplets (Example 7); conditions: induction medium + T3 + Rosiglitazone, compounds 2 μM, day 14, FIG. 7A, 7B
Protocol: as §2, with “each low-molecular-weight” for “each”, “II:” for “II: 2 μM • PD0325901: 1 μM • Forskolin (FSK):”

[11] = tested on: human dermal fibroblasts (HDFs); experiment: UCP1 mRNA response of induced cells to Isoproterenol or FSK stimulation (Example 3); conditions: cells cultured 14 days with T3, Rosiglitazone and D4476, then 10 μM Isoproterenol or FSK for 5 hr; FIG. 3
Protocol: 10 μM Isoproterenol or FSK was added to these cells as described in the Figure. As a control, a group free of the addition was also prepared. After 5 hr, the culture medium was removed from each well by suction, the cells were washed with PBS(−) and total RNA was extracted from the cells with ISOGEN II. qRT-PCR was performed in the same manner as in Example 2. The mRNA level of UCP1 gene was quantified as a ratio to […] gene mRNA and calculated with the value of fibroblast cultured in the normal medium as 1.

Row | Structure (SMILES) | mRNA expression of UCP1 gene (conversion to brown adipocytes) [1] | mRNA expression of AdipoQ gene (conversion to brown adipocytes) [3] | UCP1 protein expression by immunostaining (conversion to brown adipocytes) [4] | Oil Red O staining [5] | induction efficiency into brown adipocytes (order) [6] | UCP1 gene expression (conversion to brown adipocytes) [6] | UCP1 protein expression by immunostaining (induction into brown adipocytes) [7] | also measured
1 | O=C(NOC[C@H](O)CO)c1ccc(F)c(F)c1Nc1ccc(I)cc1F [PD0325901] | induced to brown adipocytes that express mRNA of UCP1 gene | converted to brown adipocytes expressing mRNA of AdipoQ gene | converted to brown adipocytes expressing UCP1 protein |  |  |  |  | mRNA expression of PGC-1alpha gene (conversion to brown adipocytes) [2]: converted to brown adipocytes expressing mRNA of PGC-1alpha gene; change of expression of UCP-1 protein by addition culture ([4]; PD0325901 1 μM or Forskolin 2 μM, day 14, FIG. 8B): increases
2 | Cc1ccc(C(=O)Cn2c3c(sc2=N)CCCC3)cc1 [Pifithrin alpha] |  |  |  | hardly observed |  |  |  | 
3 | Cc1cccc(-c2nn3c(c2-c2ccnc4ccc(C(N)=O)cc24)CCC3)n1 [LY2157299, 4-[5,6-dihydro-2-(6-methyl-2-pyridinyl)-4H-pyrrolo[1,2-b]pyrazol-3-yl]-6-quinolinecarboxamide] |  |  |  |  | second most strong | converted to brown adipocytes strongly expressing UCP1 gene | induced into brown adipocytes expressing UCP1 protein | strength of induction of UCP1 expression (order) ([7]; immunostaining day 14, FIG. 16): second most strong; CIDEA gene expression [8]: induced into brown adipocytes expressing UCP1 gene, CIDEA gene and KCNK3 gene; KCNK3 gene expression [8]: induced into brown adipocytes expressing UCP1 gene, CIDEA gene and KCNK3 gene; UCP1 gene expression [8]: induced into brown adipocytes expressing UCP1 gene, CIDEA gene and KCNK3 gene
4 | NC(=O)c1ccc(-c2nc(-c3ccc4c(c3)OCO4)c(-c3ccccn3)[nH]2)cc1 [SB431542, 4-[4-(1,3-Benzodioxol-5-yl)-5-(pyridin-2-yl)-1H-imidazol-2-yl]benzamide] | induced to brown adipocytes that express mRNA of UCP1 gene | converted to brown adipocytes expressing mRNA of AdipoQ gene | converted to brown adipocytes expressing UCP1 protein | Remarkable Oil Red O staining | ALK5 inhibitor II>LY2157299>SB431541>D4476 | converted to brown adipocytes strongly expressing UCP1 gene | induced into brown adipocytes expressing UCP1 protein | mRNA expression of CIDEA gene (conversion to brown adipocytes) [9]: converted to brown adipocytes expressing mRNA of CIDEA gene; lipid droplets stained with BODIPY (conversion to brown adipocytes) [10]: converted to brown adipocytes having lipid droplets stained with BODIPY
5 | CC(C)NCC(O)c1ccc(O)c(O)c1 (centres unmarked) [Isoproterenol, isoproterenol] |  |  |  |  |  |  |  | UCP1 mRNA expression on stimulation [11]: more strongly express UCP1 mRNA
